Results as given in US6784153B1, “Methods of homing molecules to lung using membrane dipeptidase” (The Burnham Institute, priority 1998, dated 2004).

Assays:
lung = experiment: in vivo homing of phage displaying peptides to lung; design: species or system mice; conditions: for % OF MOTIF AMONG ALL CLONES: LUNG; for LUNG/BRAIN RATIO: LUNG section; for enriched in lung over unselected phage: individually amplified phage, FIG. 2; for enrichment in lung as compared to unselected phage: mouse, in vivo
Description: For lung and pancreas, a mixture of phage libraries containing 10^10 TU was diluted in 200 μl DMEM and injected into the tail vein of anesthetized BALB/c mice (2 month old; Harlan Sprague Dawley; San Diego Calif.); AVERTIN (0.017 ml/g) was used as anesthetic (Pasqualini and Ruoslahti, supra, 1996). After 1-4 minutes, mice were snap frozen in liquid nitrogen or, after about 5 minutes of phage circulation, the mice were perfused through the heart with 5-10 ml of DMEM (SIGMA; St. Louis Mo.). To recover the phage, the organs from the perfused mice or partially thawed organs from snap frozen mice were collected and weighed, then were homogenized in 1 ml DMEM-PI (DMEM containing protease inhibitors (PI); phenylmethyl sulfonyl fluoride (PMSF; 1 mM), aprotinin (20 μg/ml), leupeptin (1 μg/ml)).
(§1) Organ samples were washed 3 times with ice cold DMEM-PI containing 1% bovine serum albumin (BSA), then directly incubated with 1 ml K91-kan bacteria for 1 hr. Ten ml NZY medium containing 0.2 μg/ml tetracycline (NZY/tet) was added to the bacterial culture, the mixture was incubated in a 37° C. shaker for 1 hr, then 200 μl aliquots were plated in agar plates containing 40 μg/ml tetracycline (tet/agar).
(§2) Approximately 250 to 300 individual bacterial colonies containing phage recovered from the various organs or tissues were grown for 16 hr in 5 ml NZY/tet. In some experiments, approximately 1000 individual bacteria containing phage were picked and the phage were amplified in 2 ml of NZY/tet or the entire plate containing phage was scraped, pooled and grown in bulk and processed for injection. Where phage were cultured separately, the cultures were pooled and the phage were injected into mice or rats as described above for a second round of in vivo panning. In some experiments, a third or fourth round of panning was performed. Phage DNA was purified from individual bacterial colonies obtained and the DNA sequences encoding the peptides expressed by selected phage were determined (see Koivunen et al., supra, 1994b).
After two or three rounds of in vivo panning of mice injected with a cyclic CX3CX3CX3C (SEQ ID NO: 25) or a cyclic CX6C (SEQ ID NO: 26) phage display library, four peptides that homed to lung were identified.
To determine the specificity of lung homing of the individual peptides identified, phage displaying the peptides were amplified individually, diluted to the same input titer and administered to mice. Following administration, control kidney and brain organ was removed and the number of TU of phage in lung, kidney and brain was determined. The results shown in FIG. 2 reveal that 10× and 35× more phage having the peptide sequence CGFECVRQCPERC (SEQ ID NO: 1; GFE-1) bound to lung than to kidney and brain, respectively. […] The lung homing peptides CGFECVRQCPERC (SEQ ID NO: 1; GFE-1), CGFELETC (SEQ ID NO: 2; GFE-2), CTLRDRNC (SEQ ID NO: 15) and CIGEVEVC (SEQ ID NO: 16) are enriched in lung at 35×, 9×, 6× and 5×, respectively, over unselected phage (see FIG. 2).

skin = experiment: in vivo homing of phage displaying peptides to skin; design: species or system mice
Description: For in vivo panning of skin, two month old BALB/c nude mice were used to avoid contamination by hair. The mice were injected intravenously with phage as described above and, after perfusion through the heart, the skin was removed in large sections and placed on an ice cold plate with the hypodermis facing up. The skin was scraped with a scalpel to remove mostly hypodermis, which was then processed for phage recovery as described below.
as §2
in After two or three rounds of in vivo panning of mice injected with a cyclic CX3CX3CX3C (SEQ ID NO: 25) phage display library, the peptide sequence CVALCREACGEGC (SEQ ID NO: 3), which appeared repeatedly in skin, was identified (Table 1). To determine the specificity of skin homing of the sequence CVALCREACGEGC (SEQ ID NO: 3), phage displaying the peptide was amplified individually, diluted to the same input titer and administered to mice. Following administration, control kidney and brain organ were removed and the number of TU of phage in skin, kidney and brain was determined.
Peptides that were identified more than one time during screening are indicated by an asterisk. For example, 14% of recovered CX3CX3CX3C (SEQ ID NO: 25) phage that homed to head skin had the sequence CVDVCCDGCPVCC (SEQ ID NO: 437). Phage having the sequence RVPLSGDVEH (SEQ ID NO: 438), LRVMSFTSGQ (SEQ ID NO: 439), or RFSVGSLFGS (SEQ ID NO: 440) each constituted 14% of recovered CX10C (SEQ ID NO: 30) phage that homed to head skin.

retina = experiment: in vivo homing of phage displaying peptides to retina, coinjected with control phage fdAMPLAY88; design: species or system rats; conditions: for enrichment in retina: injected individually with control fdAMPLAY88 phage; for enrichment in retina compared to control fdAMPLAY88 phage: rat, in vivo
Description: For in vivo panning of retina, two month old female Simonson Albino rats were used to provide larger tissue samples than mice. The rats were anesthetized with phenobarbital (50 mg/kg body weight), and, while under deep anesthesia, the abdominal cavity of the rats was opened and 10^10 TU of a phage library was injected into the left ventricle of the heart through the diaphragm. After 2-5 minutes of phage circulation, the eyes were removed, then washed once in 70% EtOH and once in PBS. The anterior chamber, with cornea and lens, was removed and the retina was peeled from the remaining posterior chamber. The tissue was weighed, homogenized with a syringe bulb in 1 ml of ice cold DMEM containing protease inhibitors (1 mM PMSF, 20 μg/ml aprotinin and 1 μg/ml of leupeptin; all from SIGMA; St. Louis Mo.). The tissue was washed 3 times with 1 ml of DMEM and the phage were rescued as described below.
as §2
Rats injected with a cyclic CX7C (SEQ ID NO: 24) phage display library were subjected to in vivo panning and, after three rounds, the peptide sequences CSCFRDVCC (SEQ ID NO: 5) and CRDVVSVIC (SEQ ID NO: 6) were identified in retina. Because of small tissue sample size, the phage isolated could not be accurately quantitated. Thus, the selectivity of phage displaying the peptides was determined by individually amplifying the phage displaying the sequence and administering the phage to rats with a control phage fdAMPLAY88. This fd-ampicillin phage is similar to fd-tetracycline (fuse 5-based) in that it has the same infectivity.
Rats were injected with an equal amount of the CSCFRDVCC (SEQ ID NO: 5) or CRDVVSVIC (SEQ ID NO: 6) and the fdAMPLAY88 phage. Following administration, homing to retina was evaluated by comparing the number of TU of the selected phage on tetracycline plates and fdAMPLAY88 on ampicillin plates recovered from retina.

ovary = experiment: in vivo panning of X7 library, ovary; design: species or system mice; conditions: for ovary/brain enrichment ratio: OVARY section, ovary as compared to brain; for % OF MOTIF AMONG ALL CLONES: OVARY, of 40 clones sequenced; for enrichment in ovary as compared to brain: mouse, in vivo
Description: (§3) Following various in vivo panning screens, hundreds of thousands to millions of phage expressing homing peptides were recovered from the respective organ or tissue. Generally, the phage collected from a round of in vivo panning were plated on agar, about 250 to 300 clones were selected, grown in 5 ml cultures, then pooled and readministered for a subsequent round of in vivo panning (“regular method”). However, in some experiments, 1000 clones were selected, grown in 2 ml cultures, then pooled and administered for a subsequent round of screening; or the entire agar plate was scraped and all of the phage were cultured together and administered for a subsequent round of screening. The peptide inserts of various isolated phage were determined such that, of the millions of phage that homed, only a small number of sequences were identified.
Also provided are ovary homing peptides such as RVGLVAR (SEQ ID NO: 11) and EVRSRLS (SEQ ID NO: 10), which were identified by injection of an X7 (SEQ ID NO: 29) library into mice (Table 8). The peptides were isolated by the regular method.
as §1, §2

gut = experiment: in vivo panning of X7 library, gut; design: species or system mice; conditions: for % OF MOTIF AMONG ALL CLONES: GUT, of 40 clones sequenced; for gut/brain enrichment ratio: GUT section, gut as compared to brain
Description: as §3
The invention also provides gut homing peptides such as YSGKWGK (SEQ ID NO: 9) and YSGKWGW (SEQ ID NO: 156), which were identified by injection of an X7 (SEQ ID NO: 29) library into mice (Tables 1 and 4) and differ only in the last amino acid position. The peptides were isolated by the regular method. The gut homing peptide YSGKWGK (SEQ ID NO: 9) was present in 22% of 40 clones sequenced and was enriched 30-fold in gut as compared to brain (Table 1). In addition, gut homing peptides such as QVRRVPE (SEQ ID NO: 155) and VRRGSPQ (SEQ ID NO: 164), which share a VRR motif, were identified, as were the peptides VRRGSPQ (SEQ ID NO: 164), GGRGSWE (SEQ ID NO: 167) and FRVRGSP (SEQ ID NO: 169), which share an RGS motif.
as §1, §2

prostate = experiment: in vivo panning of X7 library, prostate; design: species or system mice; conditions: for % OF MOTIF AMONG ALL CLONES: PROSTATE; for prostate/brain homing ratio: PROSTATE section, prostate as compared to brain; for enrichment in homing to prostate as compared to brain: mouse, in vivo
Description: as §3
The invention also provides prostate homing peptides such as SMSIARL (SEQ ID NO: 21) and VSFLEYR (SEQ ID NO: 22), which were identified by injection of an X7 (SEQ ID NO: 29) library into mice (Table 7). The peptides were isolated by the regular method.
as §1, §2

CERVVGSSC [peptide from phage recovered from lung]
% OF MOTIF AMONG ALL CLONES (lung): 9% | LUNG/BRAIN RATIO (lung): 4

CGATCEMQCPSGC [peptide from phage recovered from skin]
% of recovered CX3CX3CX3C phage, homing to tail skin (skin; tail skin): 12%

CGKRYRNC
% OF MOTIF AMONG ALL CLONES (lung): 5% | LUNG/BRAIN RATIO (lung): 5

CIGEVEVC [peptide from phage recovered from lung]
% OF MOTIF AMONG ALL CLONES (lung): 5% | LUNG/BRAIN RATIO (lung): 6 | enriched in lung over unselected phage (lung): 5 × | enrichment in lung as compared to unselected phage (lung): 6 fold

CKWSRLHSC [peptide from phage recovered from lung]
% OF MOTIF AMONG ALL CLONES (lung): 11% | LUNG/BRAIN RATIO (lung): 3

CLAKENVVC [peptide from phage recovered from lung]
% OF MOTIF AMONG ALL CLONES (lung): 13% | LUNG/BRAIN RATIO (lung): 2

CLRPYLNC [peptide from phage recovered from lung]
% OF MOTIF AMONG ALL CLONES (lung): 10% | LUNG/BRAIN RATIO (lung): 6

CRDVVSVIC [retina homing peptide]
enrichment in retina (retina): 2 fold | enrichment in retina compared to control fdAMPLAY88 phage (retina): 2 ×

CRLRSYGTLSLC [peptide from phage recovered from lung]
% OF MOTIF AMONG ALL CLONES (lung): 5% | LUNG/BRAIN RATIO (lung): 0.4

CRPWHNQAHTEC [peptide from phage recovered from lung]
% OF MOTIF AMONG ALL CLONES (lung): 14% | LUNG/BRAIN RATIO (lung): 5

CSCFRDVCC [retina homing peptide]
enrichment in retina (retina): 3 fold | enrichment in retina compared to control fdAMPLAY88 phage (retina): 3 ×

CSSGCSKNCLEMC [peptide from phage recovered from skin]
skin/brain phage ratio (skin; SKIN section): 2

CTLRDRNC [lung homing peptide]
% OF MOTIF AMONG ALL CLONES (lung): 10% | LUNG/BRAIN RATIO (lung): 8 | enriched in lung over unselected phage (lung): 6 × | enrichment in lung as compared to unselected phage (lung): 8 fold

CTVNEAYKTRMC [peptide from phage recovered from lung]
% OF MOTIF AMONG ALL CLONES (lung): 22% | LUNG/BRAIN RATIO (lung): 3

CVDVCCDGCPVCC [peptide from phage recovered from skin]
% of recovered CX3CX3CX3C phage that homed to head skin (skin; head skin): 14%

CWRGDRKIC [peptide from phage recovered from lung]
% OF MOTIF AMONG ALL CLONES (lung): 8% | LUNG/BRAIN RATIO (lung): 2

EVRSRLS [peptide from phage recovered from ovary]
ovary/brain enrichment ratio (ovary): 3 | % OF MOTIF AMONG ALL CLONES (ovary): 22% | enrichment in ovary as compared to brain (ovary): 3 fold

GISALVLS
% OF MOTIF AMONG ALL CLONES (gut): 11%

LRVMSFTSGQ [peptide from phage recovered from skin]
% of recovered CX10C phage that homed to head skin (skin; head skin): 14%

MSPQLAT [peptide from phage recovered from gut]
% OF MOTIF AMONG ALL CLONES (gut): 11%

RFSVGSLFGS [peptide from phage recovered from skin]
% of recovered CX10C phage that homed to head skin (skin; head skin): 14%

RGRWLAL [peptide from phage recovered from prostate]
% OF MOTIF AMONG ALL CLONES (prostate): 6%

RVGLVAR [peptide from phage recovered from ovary]
ovary/brain enrichment ratio (ovary): 5 | % OF MOTIF AMONG ALL CLONES (ovary): 22% | enrichment in ovary as compared to brain (ovary): 5 fold

RVPLSGDVEH [peptide from phage recovered from skin]
% of recovered CX10C phage that homed to head skin (skin; head skin): 14%

SMSIARL [peptide from phage recovered from prostate]
% OF MOTIF AMONG ALL CLONES (prostate): 6% | prostate/brain homing ratio (prostate): 34 | enrichment in homing to prostate as compared to brain (prostate): 34 fold

SRRQPLS [peptide from phage recovered from gut]
gut/brain enrichment ratio (gut): 2 | % OF MOTIF AMONG ALL CLONES (gut): 11%

VSFLEYR [peptide from phage recovered from prostate]
% OF MOTIF AMONG ALL CLONES (prostate): 6% | prostate/brain homing ratio (prostate): 17 | enrichment in homing to prostate as compared to brain (prostate): 17 fold

YSGKWGK [gut homing peptide]
gut/brain enrichment ratio (gut): 30 | % OF MOTIF AMONG ALL CLONES (gut): 22% | enriched in gut as compared to brain (gut; mouse, in vivo): 30 fold
